Patent US20240066027A1 (DOMAIN THERAPEUTICS, priority 2020, published 2024)

Each compound was assayed against T1, human PAR-2 (hPAR-2) receptor expressed in HEK-293 T cells in an endogenous manner (Homo sapiens, UniProt P55085) (assay: In vitro human PAR-2 functional antagonist activity using calcium assays (Fluo4AM, FLIPR Tetra)). Details: HEK-293 T cells stimulated by an EC80 of the 2-Furoyl-LIGRLO-NH2 peptide after 10 min incubation with compound; 20 concentrations, duplicate, two independent experiments.
T1 construct: human PAR-2 (hPAR-2) receptor expressed in HEK-293 T cells in an endogenous manner; endogenous in cells; host or cells: HEK-293 T cells
T1 sequence (P55085 26-397): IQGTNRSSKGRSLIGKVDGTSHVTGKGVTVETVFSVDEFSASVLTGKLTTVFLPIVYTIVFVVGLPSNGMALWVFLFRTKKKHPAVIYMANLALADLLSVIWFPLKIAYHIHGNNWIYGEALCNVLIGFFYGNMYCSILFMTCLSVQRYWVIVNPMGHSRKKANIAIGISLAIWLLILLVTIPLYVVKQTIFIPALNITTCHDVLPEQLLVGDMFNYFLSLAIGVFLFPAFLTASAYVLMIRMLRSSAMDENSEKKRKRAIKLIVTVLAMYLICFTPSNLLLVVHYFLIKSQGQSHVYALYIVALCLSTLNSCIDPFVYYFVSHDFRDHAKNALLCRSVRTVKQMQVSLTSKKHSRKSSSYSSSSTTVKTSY
Type: cell-based
Procedure, shortened: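 Antagonist activity was taken as the decrease in the calcium response to an EC80 of 2-Furoyl-LIGRLO-NH2, measured over 5 min. The agonist was added after a 10 min compound-alone step on the same plate. The HEK-293 T cells express PAR-2 endogenously and were loaded with 1 μM Fluo4AM. Signals were referenced to buffer and EC80-alone controls.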

| SMILES | IC50 |
| --- | --- |
| Cc1cc(N2CCN(C(=O)c3ccc4c(-c5ccc(C(F)(F)F)c(F)c5)cn(C(C)(C)C)c4n3)C(C)(C)C2)nc(C)c1C(=O)O [Example 220, 6-(4-(1-(tert-butyl)-3-(3-fluoro-4-(trifluoromethyl)phenyl)-1H-pyrrolo[2,3-b]pyridine-6-carbonyl)-3,3-dimethylpiperazin-1-yl)-2,4-dimethylnicotinic acid] | < 20 nM |
| Cc1cc(N2CCN(C(=O)c3ccc4c(-c5ccc(Cl)c(F)c5)cn(C[C@H]5CCOC5)c4n3)C(C)(C)C2)nc(C)c1C(=O)O [Example 184, (R)-6-(4-(3-(4-chloro-3-fluorophenyl)-1-((tetrahydrofuran-3-yl)methyl)-1H-pyrrolo[2,3-b]pyridine-6-carbonyl)-3,3-dimethylpiperazin-1-yl)-2,4-dimethyinicotinic acid] | < 20 nM |
| CC1(C)CN(c2ccc(P(=O)(O)O)cn2)CCN1C(=O)c1ccc2c(-c3ccc(Cl)c(F)c3)cn(C(C)(C)C)c2n1 [Example 194, (6-(4-(1-(tert-butyl)-3-(4-chloro-3-fluorophenyl)-1H-pyrrolo[2,3-b]pyridine-6-carbonyl)-3,3-dimethylpiperazin-1-yl)pyridin-3-yl)phosphonic acid] | > 10000 nM |
| CCOC(=O)c1ccc(N2CCN(C(=O)c3ccn4c(-c5ccc(Cl)cc5)nc(C(C)(C)C)c4n3)C(C)(C)C2)nc1 [Example 216, ethyl 6-(4-(8-(tert-butyl)-6-(4-chlorophenyl)imidazo[1,5-a]pyrimidine-2-carbonyl)-3,3-dimethylpiperazin-1-yl)nicotinate] | > 10000 nM |
| Cc1cc(N2CCN(C(=O)c3ccc4c(-c5ccc(Cl)c(F)c5)cn(CC5CCC5)c4n3)C(C)(C)C2)nc(C)c1C(=O)O [Example 171, 6-(4-(3-(4-chloro-3-fluorophenyl)-1-(cyclobutylmethyl)-1H-pyrrolo[2,3-b]pyridine-6-carbonyl)-3,3-dimethylpiperazin-1-yl)-2,4-dimethylnicotinic acid] | < 20 nM |
| CC(C)Cc1nn(-c2ccc(Cl)cc2)c2ccc(C(=O)N3CCNC(=O)C3(C)C)nc12 [Example 85, 4-(1-(4-chlorophenyl)-3-isobutyl-1H-pyrazolo[4,3-b]pyridine-5-carbonyl)-3,3-dimethylpiperazin-2-one] | 20 to 10000 nM |
| Cc1cc(N2CCN(C(=O)c3ncc4c(-c5ccc(Cl)c(F)c5)cn(CC(C)C)c4n3)C(C)(C)C2)nc(C)c1C(=O)O [Example 175, 6-(4-(5-(4-chloro-3-fluorophenyl)-7-isobutyl-7H-pyrrolo[2,3-d]pyrimidine-2-carbonyl)-3,3-dimethylpiperazin-1-yl)-2,4-dimethylnicotinic acid] | 20 to 10000 nM |
| CC(C)Cc1nn(-c2ccccc2Cl)c2ccc(C(=O)N3CCNC(=O)C3(C)C)nc12 [Example 74, 4-(1-(2-chlorophenyl)-3-isobutyl-1H-pyrazolo[4,3-b]pyridine-5-carbonyl)-3,3-dimethylpiperazin-2-one] | > 10000 nM |
| Cc1cc(N2CCN(C(=O)c3ccc4c(-c5cc(F)c(F)c(F)c5)cn(CC(C)C)c4n3)C(C)(C)C2)nc(C)c1C(=O)O [Example 143, 6-(4-(1-isobutyl-3-(3,4,5-trifluorophenyl)-1H-pyrrolo[2,3-b]pyridine-6-carbonyl)-3,3-dimethylpiperazin-1-yl)-2,4-dimethylnicotinic acid] | < 20 nM |
| CC(C)Cn1cc(-c2ccc(Cl)cc2F)c2ccc(C(=O)N3CCNC(=O)C3(C)C)nc21 [Example 115, 4-(3-(4-chloro-2-fluorophenyl)-1-isobutyl-1H-pyrrolo[2,3-b]pyridine-6-carbonyl)-3,3-dimethylpiperazin-2-one] | 20 to 10000 nM |
| Cc1cc(N2CCN(C(=O)c3ccc4c(n3)c(CC(C)C)nn4-c3ccc(Cl)c(F)c3)C(C)(C)C2)nc(C)c1C(=O)O [Example 65, 6-(4-(1-(4-chloro-3-fluorophenyl)-3-isobutyl-1H-pyrazolo[4,3-b]pyridine-5-carbonyl)-3,3-dimethylpiperazin-1-yl)-2,4-dimethylnicotinic acid] | 20 to 10000 nM |
